Laboratory results published in patent EP3623370A1, “NOVEL TRF1 MODULATORS AND ANALOGUES THEREOF” (Fundación del Sector Público Estatal Centro Nacional de …, priority 2018, dated 2020).

Target: T1, TRF1 (Mus musculus, UniProt P70371)
T1 construct: endogenous in cells; host or cells: CHA9.3 primary murine lung cancer cell line
T1 sequence (P70371 1-421): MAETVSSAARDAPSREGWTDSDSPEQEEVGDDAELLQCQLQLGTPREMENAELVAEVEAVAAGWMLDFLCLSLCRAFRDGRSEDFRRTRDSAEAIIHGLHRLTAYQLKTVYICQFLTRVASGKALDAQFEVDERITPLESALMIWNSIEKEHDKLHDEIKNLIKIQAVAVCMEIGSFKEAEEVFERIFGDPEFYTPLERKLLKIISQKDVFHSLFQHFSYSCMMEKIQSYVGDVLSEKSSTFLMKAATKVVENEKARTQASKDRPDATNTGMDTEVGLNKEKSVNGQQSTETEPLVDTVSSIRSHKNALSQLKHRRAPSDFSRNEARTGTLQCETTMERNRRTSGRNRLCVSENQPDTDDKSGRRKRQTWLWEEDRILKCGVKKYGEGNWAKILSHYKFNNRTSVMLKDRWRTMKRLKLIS
Assay: Measurement of TRF1 levels at telomere by immunofluorescence
Format: cell-based
Conditions: CHA9.3 cells (primary murine lung cancer cell line), compound at 10 µM, 24 hours, duplicates
Procedure: Assay was performed in CHA9.3, a primary murine cell line derived from a lung cancer. (Garcia-Beccaria et al., 2015). Cells were grown in DMEM (Gibco) supplemented with 10% FBS (fetal bovine serum), 1% penicillin/estreptomicen (Someglas 100U/ml) and 0.5% Amphotericin B (Gibco). Cells were incubated at 37 °C with 5% CO2. Cells were trypsinized with Trypsin-EDTA (Sigma) and washed with PBS (BioWhittaker) before counting and plating.
Cells were seeded in 10000 cells per 150 µl per well into black 96-well plates (Falcon) and incubated for 16 h at 37°C, 5% CO2. On day two, duplicates of each compound at 10 µM in DMSO were tested. The compounds were added to duplicate wells in 96-well cell plates using a FX BECKMAN robot (BeckmanCoulter) and were incubated at 37°C under CO2 atmosphere. After 24 hours, relative levels of TRF1 at telomeres were quantified by immunofluorescence. A rat monoclonal antibody against mouse TRF1 developed by the Monoclonal antibody unit at CNIO was used to detect endogenous TRF1.
First cells were fixed with 4 % formaldehyde (Sigma) in PBS (Alaos) during 13 minutes at room temperature (RT). After removal of the medium, cells were washed twice with PBS 10 minutes. Cells were permeabilized with a solution 0.2%Triton X-100 (Sigma) in PBS during 10 minutes at RT. After two more washes with PBS, cells were incubated with a solution 0.1%NaCitrate (Fluka) /0.1 %Triton X100 during 5 minutes at RT. After, two more washes with PBS cells were blocked with a solution 3% BSA (Sigma) in PBS-T, PBS with 0.05% Tween20 (Sigma), during 3 o 4 hours. Then, cells were incubated o/n at 4 °C with a dilution 1:750 of anti TRF1 antibody. After two washes of 10 minutes with PBS-T, cells were incubated with secondary antibody anti-rat 555 (Alexa Fluor) (1 :500) during 1 hour at RT: Then, 3 washes with PBS-T (0.05%) of 10 minutes and a last wash with PBS1X were performed. Nuclear staining was performed with Hoechst (Invitrogen) at de […] in PBS1X during10 minutes.
For quantification of TRF1 foci intensity, pictures of fixed cells were automatically acquired from each well by the Opera High Content Screening (HCS) system (Perkin Elmer). Forty images of random fields per well, with a 40xmagnification lens, were taken under non-saturating conditions. At least 1 × 10^3 cells were analyzed for each well. Briefly, images were segmented using the DAPI staining to generate masks matching cell nuclei from which-TRF1 foci were analyzed. Automatic analysis was performed with Acapela v2.0 software. Quantification of the inhibition of TRF1 levels at telomeres was performed with Pipeline platform.

Row | SMILES | inhibition at 10 µM [%]
1 | C#Cc1cnc(Nc2nc([C@@H](N)Cc3ccccc3)cs2)nc1 [Compound 64] | 6.41
2 | C#Cc1cnc(Nc2nc([C@H](N)Cc3ccccc3)cs2)nc1 [Compound 63] | 11.7
3 | C#Cc1cnc(Nc2nc(C(N)Cc3ccccc3)cs2)nc1 (racemic) [Compound 62] | 11.4
4 | C#Cc1cccc(C[C@H](N)c2csc(Nc3ncccn3)n2)c1 [Compound 61] | 30.5
5 | C#CCOc1ccc(CC(N)c2csc(Nc3ncccn3)n2)cc1 (racemic) [Compound 20] | 19.4
6 | Cc1ccnc(Nc2nc([C@@H](N)Cc3ccccc3)cs2)n1 [Compound 33] | 30
7 | C#CCOc1cccc(CC(N)c2csc(Nc3ncccn3)n2)c1 (single isomer, unassigned) [Compound 18] | 33.8
8 | Cc1cnc(Nc2nc([C@@H](N)Cc3ccccc3)cs2)nc1 [Compound 36] | 18.4
9 | NC(Cc1cccc(Cl)c1)c1csc(Nc2ncccn2)n1 (racemic) [Compound 12] | 27.9
10 | C#Cc1cccc(CC(N)c2csc(Nc3ncccn3)n2)c1 (racemic) [Compound 58] | 27.1
11 | NC(Cc1ccccc1)c1csc(Nc2ncccn2)n1 (racemic) [Compound 1] | 27.3
12 | N[C@@H](Cc1ccccc1)c1csc(Nc2ccccn2)n1 [Compound 35] | 20.5
13 | Nc1cccc(-c2sc(Nc3ncccn3)nc2C(N)Cc2ccccc2Br)c1 (centres unmarked) [Compound 78] | 27.8
14 | C#Cc1ccc(C[C@H](N)c2csc(Nc3ncccn3)n2)cc1 [Compound 69] | 7.7
15 | NC(Cc1ccccc1Br)c1csc(Nc2ncccn2)n1 (racemic) [Compound 2] | 29.8
16 | CC(=O)Nc1cccc(-c2sc(Nc3ncccn3)nc2C(N)Cc2ccccc2)c1 (centres unmarked) [Compound 83] | 17.2
17 | N[C@@H](Cc1ccccc1)c1csc(Nc2ncc(Br)cn2)n1 [Compound 34] | 21
18 | C#CCCC(=O)Nc1cnc(Nc2nc(C(N)Cc3ccc(F)cc3)cs2)nc1 (centres unmarked) [Compound 74] | 15.5
19 | C#CCOc1cccc(-c2sc(Nc3ncccn3)nc2[C@@H](N)Cc2ccccc2)c1 [Compound 122] | 5.33
20 | C#Cc1cccc(C[C@@H](N)c2csc(Nc3ncccn3)n2)c1 [Compound 60] | 24.8

Row | SMILES | inhibition at 10 µM [%]
21 | C#CCOc1cccc(-c2sc(Nc3ncccn3)nc2C(N)Cc2ccccc2)c1 (racemic) [Compound 87] | 17.5
22 | NC(Cc1cccc(O)c1)c1csc(Nc2ncccn2)n1 (centres unmarked) [Compound 105] | 29.5
23 | COc1cc(C)nc(Nc2nc([C@@H](N)Cc3ccccc3)cs2)n1 [Compound 37] | 9.77
24 | COCCOc1cccc(-c2sc(Nc3ncccn3)nc2[C@@H](N)Cc2ccccc2)c1 [Compound 84] | 16.3
25 | NC(Cc1ccc([N+](=O)[O-])cc1)c1csc(Nc2ncccn2)n1 (racemic) [Compound 14] | 0
26 | NC(Cc1ccccc1Br)c1csc(Nc2ncccn2)n1 (single isomer, unassigned) [Compound 3] | 25.4
27 | C#Cc1cccc(-c2sc(Nc3ncccn3)nc2C(N)Cc2ccccc2)c1 (centres unmarked) [Compound 81] | 19.7
28 | Nc1ccc(CC(N)c2csc(Nc3ncccn3)n2)cc1 (centres unmarked) [Compound 52] | 10.5
29 | C#CCCCCOc1ccc(CC(N)c2csc(Nc3ncccn3)n2)cc1 (racemic) [Compound 26] | 0
30 | NC(Cc1ccc(Br)cc1)c1csc(Nc2ncccn2)n1 (racemic) [Compound 8] | 32.4
31 | NC(Cc1cccc(Br)c1)c1csc(Nc2ncccn2)n1 (racemic) [Compound 5] | 29.8
32 | C#CCOc1cccc(CC(N)c2csc(Nc3ncccn3)n2)c1 (racemic) [Compound 17] | 31.6
33 | N[C@@H](Cc1ccccc1)c1nc(Nc2ncccn2)sc1Br [Compound 88] | 29.9
34 | C#CCOc1cccc(-c2sc(Nc3ncccn3)nc2[C@H](N)Cc2ccccc2)c1 [Compound 123] | 10.9
35 | C#CCOc1cccc(C[C@H](N)c2csc(Nc3ncccn3)n2)c1 [Compound 19] | 27.5
36 | C#Cc1ccc(C[C@@H](N)c2csc(Nc3ncccn3)n2)cc1 [Compound 68] | 31.2
37 | C#Cc1ccc(CC(N)c2csc(Nc3ncccn3)n2)cc1 (racemic) [Compound 66] | 18.1
38 | NC(Cc1cccc(Br)c1)c1csc(Nc2ncccn2)n1 (single isomer, unassigned) [Compound 6] | 28.3
39 | N[C@@H](Cc1ccccc1)c1nc(Nc2ncccn2)sc1-c1cccc(O)c1 [Compound 89] | 23
40 | NC(Cc1ccc(O)cc1)c1csc(Nc2ncccn2)n1 (centres unmarked) [Compound 120] | 20

Same assay, conditions: CHA9.3 cells (primary murine lung cancer cell line), compound at 10 µM, 24 hours, duplicates; 10 µM

Row | SMILES | % inhibition of TRF1 levels [%]
41 | NC(Cc1ccccc1Br)c1csc(Nc2ncccn2)n1 (single isomer, unassigned) [Compound 4] | 24.91
42 | NC(Cc1cccc(Br)c1)c1csc(Nc2ncccn2)n1 (single isomer, unassigned) [Compound 7] | 28.55

Same assay, conditions: qualitative SAR statement in the description

Row | SMILES | TRF1 inhibition activity (active / inactive, in words)
43 | C#CCOc1ccc(CC(N)c2csc(Nc3ncccn3)n2)cc1 (racemic) [Compound 20] | active
44 | C#CCOc1cccc(CC(N)c2csc(Nc3ncccn3)n2)c1 (single isomer, unassigned) [Compound 18] | active
45 | COc1cc(C)nc(Nc2nc([C@@H](N)Cc3ccccc3)cs2)n1 [Compound 37] | active
46 | C#CCOc1cccc(CC(N)c2csc(Nc3ncccn3)n2)c1 (racemic) [Compound 17] | active
47 | C#CCOc1cccc(C[C@H](N)c2csc(Nc3ncccn3)n2)c1 [Compound 19] | active
